The record followed here is patent US20200375929A1, “METHODS AND COMPOSITIONS FOR THE TREATMENT OF DISEASES ASSOCIATED WITH CANCER, INFLAMMATION, OR IMMUNE RESPONSE” (Washington University, priority 2017, published 2020).

Entries after “also recorded” stand apart in the source; their conditions may differ. Counter-ions that a name gives are not always drawn. Where a SMILES comes first, the peptide text is derived from it. The star is where a group is joined. Cbz = O=C(OCc1ccccc1)*

Test [1] has as its system IκBζ. As to the kind of experiment: LPS-induced Ikb-ζ protein induction in BMDMs (western blot). Particulars: for LPS-induced Ikb-ζ induction, protein level: BMDMs treated with compound 12 h, then LPS 100 ng/ml; for effect of added agent on Ikb-ζ induction in DI-treated cells: DI 12 h plus agent. The test is classed as cell-based, mouse. As for the experimental part:
(§1) BMDM were prepared from 6- to 12-week-old mice as described 1 and cultured in RMPI-1640 medium supplemented with 10% fetal bovine serum (FBS), 2 mM L-glutamine, and 100 U/mL penicillin-streptomycin and mouse recombinant M-CSF ([…], Peprotech). For experiments, cells were seeded at concentration 10^6 cells/mL in tissue culture plates of various formats. The cells were treated with DI (250 μM (unless stated otherwise), cat #592498, Sigma), DMF (50 μM (unless stated otherwise), cat #242926, Sigma), 3-(ethoxycarbonyl)but-3-enoic acid (3MI, 5 μM, Aris Pharmaceuticals Inc.), 4-ethoxy-2-methylene-4-oxobutanoic acid (MI, Aris Pharmaceuticals Inc.) for 12 h and activated with lipopolysaccharide (LPS; 100 ng/mL; E. coli 0111:B4, Sigma) for 1 h or as indicated. In some experiments cells were stimulated with combination of LPS (20 ng/mL) and IFN-γ (50 ng/mL; Peprotech). In some experiments cells were treated with α-tocopherol (AT, 10 μM; Sigma), MitoTEMPO (MT, 500 μM; Sigma), N-acetylcysteine (NAC, 1 mM, Sigma), ethylester of GSH (EtGSH; 1 mM, Santa Cruz) or buthionene sulfoximine (BSO, 500 μM, Sigma) alone or in combination with DI for 12 h. In some experiments BMDMs were treated with DI for 12 h and bafilomycin A (BafA, 100 nM, Sigma) or MG132 (10 μM, Selleckchem) were added 30 min before subsequent LPS stimulation.
(§2) Cells were lysed in RIPA Lysis Buffer System (Santa Cruz) and heat-denatured at 95° C. for 5 min in reducing sample buffer (BioRad). Proteins were separated on 4%-20% polyacrylamide gradient gels (BioRad) and transferred onto 0.45 μm pore size PVDF membranes (Millipore). Non-specific binding was blocked with 5% skim milk (or 5% BSA when phospho-proteins were analyzed), and membranes were probed with primary antibodies specific to Nrf2 (#12721), HO-1 (#70081), IκBζ (mouse specific, #93726), IκBζ(#9244), ATF3 (#D2Y5W), IRAK1 (#4504; sensitivity of IRAK1 detection diminishes upon IRAK1 K63 ubiquitination), phospho-IKK (Ser176/180, #2697), p62/SQSTM1 (#5114), phospho-eIF2α (Ser51, #9721), eIF2α (#5324) from Cell Signaling; GAPDH (sc-25778), IκBα (sc-1643), ATF3 (sc-188), SDHA (sc-166909) from Santa Cruz; NQO1 (ab28947) from Abeam, followed by incubation with anti-rabbit-HRP (1:10,000; sc-2030) or anti-mouse-HRP (1:10,000; sc-2031) from Santa Cruz and Clarity western ECL substrate (Bio-Rad). Membranes were exposed to X-Ray films (Research Products International Corp.) and developed using SRX-101A film processor (Konica Minolta). GAPDH run on the same blot was used as loading control. After scanning of original films image brightness of some blots was adjusted and bands were cropped using ImageJ. Densitometry was performed using ImageJ.

Test [2] relates to IκBζ. The experiment in a line: Ikb-ζ protein in LPS-stimulated human monocytes (western blot). The test is classed as cell-based. Particulars: human blood monocytes, DI plus agent, LPS 1 h. Here is the method: as §2, with “Membranes were exposed to X-Ray films (Research Products International Corp.) and developed using SRX-101A film processor (Konica Minolta). GAPDH run on the same blot was used as loading control. After scanning of original films image brightness of some blots was adjusted and bands were cropped using ImageJ. Densitometry was performed using ImageJ.” left out
Blood from healthy donors was acquired from LRS chambers supplied by the Mississippi Valley Regional Blood Center. […] After extensive washes to allow removal of non-adherent cells, monocytes (>95% purity) were harvested, counted and 5×10^5 cells were plated per well in 24-well plates. […]
In general terms: A western blot detects proteins with antibodies after separation by electrophoresis.

The test system of a further test is IL6, IL12, IL1b, TNFα. As to the kind of experiment: Cytokine production in LPS-stimulated BMDMs (ELISA). Particulars: then LPS; for effect of co-treatment on DI-mediated inhibition of cytokine (IL6) production: agent added simultaneously with DI; for LPS-induced cytokine production: BMDMs pretreated 12 h. The format is cell-based, mouse. As for the experimental part: as §1
Cytokines in cell supernatants were analyzed using DuoSet® ELISA kits according to manufacturer protocol (R&D Systems). The supernatants from BMDMs were diluted 1:4, from human blood monocytes 1:3.

For a further test, the system named is ATF3. As to the kind of experiment: ATF3 protein expression (western blot). The test is classed as cell-based, mouse. Particulars: mouse macrophages and human monocytes, DI plus agent. Here is the method:
as §1, with “In some experiments BMDMs were treated with DI for 12 h and bafilomycin A (BafA, 100 nM, Sigma) or MG132 (10 μM, Selleckchem) were added 30 min before subsequent LPS stimulation.” left out
(§3) Cells were lysed in RIPA Lysis Buffer System (Santa Cruz) and heat-denatured at 95° C. for 5 min in reducing sample buffer (BioRad). […] Non-specific binding was blocked with 5% skim milk (or 5% BSA when phospho-proteins were analyzed), and membranes were probed with primary antibodies specific to Nrf2 (#12721), HO-1 (#70081), IκBζ (mouse specific, #93726), IκBζ(#9244), ATF3 (#D2Y5W), IRAK1 (#4504; sensitivity of IRAK1 detection diminishes upon IRAK1 K63 ubiquitination), phospho-IKK (Ser176/180, #2697), p62/SQSTM1 (#5114), phospho-eIF2α (Ser51, #9721), eIF2α (#5324) from Cell Signaling; GAPDH (sc-25778), IκBα (sc-1643), ATF3 (sc-188), SDHA (sc-166909) from Santa Cruz; NQO1 (ab28947) from Abeam, followed by incubation with anti-rabbit-HRP (1:10,000; sc-2030) or anti-mouse-HRP (1:10,000; sc-2031) from Santa Cruz and Clarity western ECL substrate (Bio-Rad). […]

The subject of a further test is Nrf2. As to the kind of experiment: Nrf2 response in BMDMs (western blot, target genes). The test is classed as cell-based, mouse. Particulars: 12 h treatment. Here is the method: as §1, with “In some experiments BMDMs were treated with DI for 12 h and bafilomycin A (BafA, 100 nM, Sigma) or MG132 (10 μM, Selleckchem) were added 30 min before subsequent LPS stimulation.” left out
as §3

The next test concerns HBL1 cells line (ABC). As to the kind of experiment: DLBCL cell viability, resazurin assay, ABC subtype. The format is cell-based. Particulars: HBL1, 4 days, refreshed daily; DI 125-250 μM. Background: Resazurin is reduced to fluorescent resorufin, in cell work by metabolically active cells.
The subject of test [3] is LY1 and LY7 (GCB) cell lines. As to the kind of experiment: DLBCL cell viability, resazurin assay, GCB subtype. The format is cell-based. Particulars: LY1 and LY7, 4 days, refreshed daily; DI 125-250 μM.
Another test deals with STAT3. The experiment in a line: STAT3 activation in LPS-stimulated BMDMs (western blot). The format is cell-based, mouse. Particulars: BMDMs, 12 h pretreatment. Here is the method: as §1, with “In some experiments BMDMs were treated with DI for 12 h and bafilomycin A (BafA, 100 nM, Sigma) or MG132 (10 μM, Selleckchem) were added 30 min before subsequent LPS stimulation.” left out
as §3

In the case of `C=C(CC(=O)O)C(=O)OCC` [3MI, 3-(ethoxycarbonyl)but-3-enoic acid], in the test on IκBζ [1], the “LPS-induced Ikb-ζ induction, protein level” value (shortened to “LPS-induced Ikb-ζ induction”) is reported as “inhibited IκBζ induction”.
Take `CCOC(=O)CNC(=O)[C@H](CS)NC(=O)CC[C@H](N)C(=O)O` [EtGSH, ethylester of GSH, reference compound]: the “effect of co-treatment on IκBζ induction in DI-treated cells” value with IκBζ [2] is “restored LPS-mediated IκBζ induction”. In addition, the “effect of co-treatment on DI-mediated inhibition of cytokine (IL6) production” value in the test with IL6, IL12, IL1b, TNFα is “reversed the effect of DI”. Moreover, the “DI-mediated ATF3 expression upon co-treatment” value in the test with ATF3 is on record as “efficiently decreased”. Also, the “effect of added agent on Ikb-ζ induction in DI-treated cells” value (shortened to “effect of added agent on Ikb-ζ induction”) with IκBζ [1] (BMDMs, LPS) is reported as “restored LPS-mediated IκBζ induction”.
Turning to `CC(=O)N[C@@H](CS)C(=O)O` [NAC, N-acetylcysteine], the “effect of co-treatment on DI-mediated inhibition of cytokine (IL6) production” value in the test on IL6, IL12, IL1b, TNFα is given as “completely abrogated effect of DI when added simultaneously with DI”; in the test with IL6, IL12, IL1b, TNFα (listed as N-acetylcysteine), “reversed the effect of DI”. Also, the “DI-mediated ATF3 expression upon co-treatment” value with ATF3 was “efficiently decreased”. Also, in the test on IκBζ [1] (BMDMs, LPS), the “effect of added agent on Ikb-ζ induction” value is given as “restored Ikb-ζ production; also recorded: restored LPS-mediated IκBζ induction”.
With `CCCCS(=N)(=O)CCC(N)C(=O)O` (stereo not shown) [BSO, buthionine sulfoximine, reference compound], in the test on IL6, IL12, IL1b, TNFα, the LPS-induced cytokine production entry is recorded as “does not inhibit cytokine production”. Further, the “Nrf2 response (Nrf2 protein, target genes)” value with Nrf2 is “nor trigger Nrf2 response”.
Regarding `CC(C)C[C@@H](C=O)NC(=O)[C@H](CC(C)C)NC(=O)[C@H](CC(C)C)NC(=O)OCc1ccccc1` [MG132, reference compound] (Cbz-Leu-Leu-Leu-aldehyde), in the test with IκBζ [1] (BMDMs, LPS), the “effect of added agent on Ikb-ζ induction” value was “did not affect Ikb-ζ levels; also recorded: neither rescued IκBζ induction”.
In the case of `CN1CCCC(CN2c3ccccc3Sc3ccccc32)C1` (stereo not shown) [Mepazine, mepazine, reference compound], the “growth / toxicity, ABC DLBCL” value in the test with HBL1 cells line (ABC) is “inhibited growth of HBL1”. Moreover, the “growth / toxicity, GCB DLBCL” value in test [3] was “not LY1 and LY7”.
Consider `C=C(CC(=O)OCC)C(=O)O` [MI, 4-ethoxy-2-methylene-4-oxobutanoic acid], for which the “LPS-induced Ikb-ζ induction” value with IκBζ [1] is reported as “did not”. Besides, the “effect on IκBζ/IL-6 in combination with BSO” value in the test on IκBζ [1] (BMDMs, compound plus BSO 500 μM, LPS) is “unlocked the effect”.
Take `COC(=O)CC(=O)OC` [DM, Dimethyl malonate, reference compound]: the “LPS-induced Ikb-ζ induction” value in the test on IκBζ [1] is listed as “does not affect Ikbζ expression”.
Consider `COC(=O)/C=C/C(=O)OC` [DMF, Dimethyl fumarate, reference compound], for which, in the test with IL6, IL12, IL1b, TNFα, the LPS-induced cytokine production result is given as “inhibit IL6 but not TNF production; also recorded: selective inhibition of IL-6”. Besides, the “Nrf2 response (Nrf2 protein, target genes)” value in the test with Nrf2 is “triggered Nrf2 response”. The “STAT3 activation (Y705 phosphorylation)” value in the test with STAT3 is listed as “effective to inhibit STAT3 activation”. In addition, the “LPS-induced Ikb-ζ induction” value in the test on IκBζ [1] is reported as “strongly inhibited Ikb-ζ induction; also recorded: inhibited IκBζ induction”.
Take `CO/C1=C\C(C)=C\[C@@H](C)[C@@H](O)[C@@H](C)C/C(C)=C/C=C/[C@H](OC)[C@@H]([C@@H](C)[C@@H](O)[C@H](C)[C@@]2(O)C[C@@H](O)[C@H](C)[C@@H](C(C)C)O2)OC1=O` [bafilomycin A, reference compound]: the “effect of added agent on Ikb-ζ induction” value in the test with IκBζ [1] (BMDMs, LPS) was “neither rescued IκBζ induction”.
